The source of these data is patent US20250346564A1 (ARase Therapeutics Inc., priority 2022, published 2025).

Chain of PARG (Q86W56 whole entry): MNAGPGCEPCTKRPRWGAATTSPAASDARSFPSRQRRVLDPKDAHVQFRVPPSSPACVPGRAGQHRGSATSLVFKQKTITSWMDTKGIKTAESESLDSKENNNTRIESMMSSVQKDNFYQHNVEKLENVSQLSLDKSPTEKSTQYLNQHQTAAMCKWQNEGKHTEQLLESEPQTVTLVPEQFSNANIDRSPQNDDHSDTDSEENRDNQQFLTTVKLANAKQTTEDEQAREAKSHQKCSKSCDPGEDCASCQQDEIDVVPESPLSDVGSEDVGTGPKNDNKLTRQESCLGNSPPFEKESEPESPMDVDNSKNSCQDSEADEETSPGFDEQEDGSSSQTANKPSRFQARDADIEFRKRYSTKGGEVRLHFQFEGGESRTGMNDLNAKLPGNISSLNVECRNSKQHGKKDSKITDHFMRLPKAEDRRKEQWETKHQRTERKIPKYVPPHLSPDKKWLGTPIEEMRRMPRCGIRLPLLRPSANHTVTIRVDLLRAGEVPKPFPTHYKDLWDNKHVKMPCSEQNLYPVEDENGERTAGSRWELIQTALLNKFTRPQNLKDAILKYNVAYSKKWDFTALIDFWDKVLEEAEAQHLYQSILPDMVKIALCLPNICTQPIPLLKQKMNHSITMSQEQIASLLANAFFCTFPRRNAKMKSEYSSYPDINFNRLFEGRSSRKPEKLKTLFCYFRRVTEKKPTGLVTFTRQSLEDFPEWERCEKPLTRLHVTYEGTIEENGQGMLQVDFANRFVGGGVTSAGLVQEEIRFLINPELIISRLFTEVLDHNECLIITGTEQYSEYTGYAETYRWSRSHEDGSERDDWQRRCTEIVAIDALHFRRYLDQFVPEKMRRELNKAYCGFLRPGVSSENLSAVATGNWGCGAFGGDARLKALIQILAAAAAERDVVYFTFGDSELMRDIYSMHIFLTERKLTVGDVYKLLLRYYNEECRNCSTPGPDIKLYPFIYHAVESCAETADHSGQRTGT

The experiment addresses PARG (Homo sapiens (Human), UniProt Q86W56). Briefly: PARG TFMU assay (4-(trifluoromethyl)umbelliferone substrate). In kind it is biochemical. The following applies: PARG 250 pM or 2 nM, 10-point dose response. On the procedure: Example C. Inhibition of PARG TEMU Assay
The ability of the compounds of the Examples to inhibit PARG activity in 4. (trifluoromethyl)umbelliferone (TFMU) assay was determined as described below. PARG inhibitors were added into 384 well plate for a 10-point dose response curve at 1:3 dilutions. TFMU PARG substrate and PARG (250 pM or 2 nM) were then added to the plate to initiate enzymatic reaction. After incubation with the reagent, […] was read. IC50 values were calculated using set control points for 100% inhibition as no enzyme and 0% inhibition 250 pM or 2 nM of PARG enzyme.
Broadly, the IC50 is the concentration needed to halve the response being measured. `CC1OCC1(C)NS(=O)(=O)c1cc(Cl)c2cnn(-c3nnc(C(F)F)s3)c2c1` (centres unmarked) [Example 71, 4-chloro-1-(5-(difluoromethyl)-1,3,4-thiadiazol-2-yl)-N-(2,3-dimethyloxetan-3-yl)-1H-indazole-6-sulfonamide] came in with an IC50 of 50 to 500 nM.
Regarding `CN1CCN(c2cc(S(=O)(=O)NC3(C)COC3)cc3c2cnn3-c2nnc(C(F)F)s2)CC1` [Example 48, 1-(5-(difluoromethyl)-1,3,4-thiadiazol-2-yl)-N-(3-methyloxetan-3-yl)-4-(4-methylpiperazin-1-yl)-1H-indazole-6-sulfonamide], the half-inhibitory concentration (IC50) is 50 to 500 nM.
Compound `C=Cc1nnc(-n2ncc3c(N4CCN(C(=O)C(C)C)CC4)cc(S(=O)(=O)NC4(C)COC4)cc32)s1` [Example 80, 4-(4-isobutyrylpiperazin-1-yl)-N-(3-methyloxetan-3-yl)-1-(5-vinyl-1,3,4-thiadiazol-2-yl)-1H-indazole-6-sulfonamide] displayed an IC50 of under 50 nM.
With `N#CC1(NS(=O)(=O)c2cc(N3CCN(C(=O)C4CC4)CC3)c3cnn(-c4nnc(C(F)F)s4)c3c2)COC1` [Example 39, N-(3-cyanooxetan-3-yl)-4-(4-(cyclopropanecarbonyl)piperazin-1-yl)-1-(5-(difluoromethyl)-1,3,4-thiadiazol-2-yl)-1H-indazole-6-sulfonamide] the figure was under 50 nM.
The result for `CC(C)C(=O)N1CCN(c2cc(S(=O)(=O)NC3(CF)COC3)cc3c2cnn3-c2nncs2)CC1` [Example 44, N-(3-(fluoromethyl)oxetan-3-yl)-4-(4-isobutyrylpiperazin-1-yl)-1-(1,3,4-thiadiazol-2-yl)-1H-indazole-6-sulfonamide] reads under 50 nM; that for `CC(C)S(=O)(=O)N1CCN(c2cc(S(=O)(=O)NC3(C)COC3)cc3c2cnn3-c2nnc(C(F)F)s2)CC1` [Example 33, 1-(5-(difluoromethyl)-1,3,4-thiadiazol-2-yl)-4-(4-(isopropylsulfonyl)piperazin-1-yl)-N-(3-methyloxetan-3-yl)-1H-indazole-6-sulfonamide], under 50 nM; that for `C=Cc1nnc(-n2ncc3c(N4CCN(C(=O)C(C)C)CC4)cc(S(=O)(=O)NC4(CF)COC4)cc32)s1` [Example 47, N-(3-(fluoromethyl)oxetan-3-yl)-4-(4-isobutyrylpiperazin-1-yl)-1-(5-vinyl-1,3,4-thiadiazol-2-yl)-1H-indazole-6-sulfonamide], under 50 nM.
The result for `CCn1c(=O)c2cc(S(=O)(=O)N[C@H]3CC[C@@H]3CO)ccc2n(CC)c1=O` (single isomer, unassigned) [Example 75] reads at least 5000 nM.
`CN(C)c1cc(S(=O)(=O)NC2(C)COC2)cc2c1cnn2-c1nnc(C(F)F)s1` [Example 26, 1-(5-(difluoromethyl)-1,3,4-thiadiazol-2-yl)-4-(dimethylamino)-N-(3-methyloxetan-3-yl)-1H-indazole-6-sulfonamide] had an IC50 of 50 to 500 nM.
`CC(C)C(=O)N1CCN(c2cc(S(=O)(=O)NC3(CF)COC3)cc3c2cnn3-c2nnc(C3CC3)s2)CC1` [Example 43, 1-(5-cyclopropyl-1,3,4-thiadiazol-2-yl)-N-(3-(fluoromethyl)oxetan-3-yl)-4-(4-isobutyrylpiperazin-1-yl)-1H-indazole-6-sulfonamide] registered a half-inhibitory concentration (IC50) of under 50 nM.
The result for `CC(C)C(=O)N1CCN(c2cc(S(=O)(=O)NC3(C)COC3)cc3c2cnn3-c2nncs2)CC1` [Example 46, 4-(4-isobutyrylpiperazin-1-yl)-N-(3-methyloxetan-3-yl)-1-(1,3,4-thiadiazol-2-yl)-1H-indazole-6-sulfonamide] reads under 50 nM; that for `CC(C)C(=O)N1CCN(c2cc(S(=O)(=O)NC3(C#N)COC3)cc3c2cnn3-c2nnc(C(F)F)s2)CC1` [Example 30, N-(3-cyanooxetan-3-yl)-1-(5-(difluoromethyl)-1,3,4-thiadiazol-2-yl)-4-(4-isobutyrylpiperazin-1-yl)-1H-indazole-6-sulfonamide], under 50 nM.
With `CCn1c(=O)c2cc(S(=O)(=O)N[C@@H]3CC[C@H]3CO)ccc2n(CC)c1=O` (single isomer, unassigned) [Example 74] the figure was at least 5000 nM.
The result for `CC(C)C(=O)N1CCN(c2cc(S(=O)(=O)NC3COC3)cc3c2cnn3-c2nnc(C(F)F)s2)CC1` [Example 29, 1-(5-(difluoromethyl)-1,3,4-thiadiazol-2-yl)-4-(4-isobutyrylpiperazin-1-yl)-N-(oxetan-3-yl)-1H-indazole-6-sulfonamide] reads 50 to 500 nM.
Take `CC1(NS(=O)(=O)c2cc(Cl)c3cnn(-c4nnc(C(F)F)s4)c3c2)COC1` [Example 24]: the IC50 fell in the range of 50 to 500 nM.
In the case of `CC(C)C(=O)N1CCN(c2cc(S(=O)(=O)NC3(C#N)COC3C)cc3c2cnn3-c2nnc(C(F)F)s2)CC1` (centres unmarked) [Example 32, N-(3-cyano-2-methyloxetan-3-yl)-1-(5-(difluoromethyl)-1,3,4-thiadiazol-2-yl)-4-(4-isobutyrylpiperazin-1-yl)-1H-indazole-6-sulfonamide], the IC50 was 50 to 500 nM.
Compound `CN(CC(F)F)C(=O)N1CCN(c2cc(S(=O)(=O)NC3(C)COC3)cc3c2cnn3-c2nnc(C(F)F)s2)CC1` [Example 37, N-(2,2-difluoroethyl)-4-(1-(5-(difluoromethyl)-1,3,4-thiadiazol-2-yl)-6-(N-(3-methyloxetan-3-yl)sulfamoyl)-1H-indazol-4-yl)-N-methylpiperazine-1-carboxamide] registered an IC50 of under 50 nM.
The result for `O=C(C1CCCC1)N1CCN(c2cc(S(=O)(=O)NC3(CF)COC3)cc3c2cnn3-c2nnc(C(F)F)s2)CC1` [Example 34, 4-(4-(cyclopentanecarbonyl)piperazin-1-yl)-1-(5-(difluoromethyl)-1,3,4-thiadiazol-2-yl)-N-(3-(fluoromethyl)oxetan-3-yl)-1H-indazole-6-sulfonamide] reads under 50 nM; that for `CC(C)C(=O)N1CCN(c2cc([S@TB20](=O)(=O)NC3(CF)COC3)cc3c2cnn3-c2nnc(C(F)F)s2)CC1` [Example 22, 1-(5-(difluoromethyl)-1,3,4-thiadiazol-2-yl)-N-(3-(fluoromethyl)oxetan-3-yl)-4-(4-isobutyrylpiperazin-1-yl)-1H-indazole-6-sulfonamide], under 50 nM.
Turning to `CC1(NS(=O)(=O)c2ccc3cnn(-c4nnc(C(F)F)s4)c3c2)COC1` [Example 23, 1-(5-(difluoromethyl)-1,3,4-thiadiazol-2-yl)-N-(3-methyloxetan-3-yl)-1H-indazole-6-sulfonamide], the IC50 was 50 to 500 nM.
The compound `Cn1ncc2ccc(S(=O)(=O)NC3(C)COC3)cc21` [Example 72, 1-methyl-N-(3-methyloxetan-3-yl)-1H-indazole-6-sulfonamide] showed an IC50 of at least 5000 nM.
The result for `N#CC1(NS(=O)(=O)c2cc(N3CCN(C(=O)N4CCCC4)CC3)c3cnn(-c4nnc(C(F)F)s4)c3c2)COC1` [Example 38, N-(3-cyanooxetan-3-yl)-1-(5-(difluoromethyl)-1,3,4-thiadiazol-2-yl)-4-(4-(pyrrolidine-1-carbonyl)piperazin-1-yl)-1H-indazole-6-sulfonamide] reads under 50 nM; that for `CC(C)C(=O)N1CCN(c2cc(S(=O)(=O)N[C@@]3(C)CO[C@H]3C)cc3c2cnn3-c2nnc(C(F)F)s2)CC1` (single isomer, unassigned) [Example 27], under 50 nM.
